Measurements: patent US12679804B2, “2-(3-ethynylbenzyl)-substituted heterocycle derivatives and related uses” (CENTESSA PHARMACEUTICALS (UK) LIMITED, priority 2021, dated 2026)
Where no end group is shown, it is not given here.

Legend:
[1] = target: T1, human orexin type 2 receptor (hOX2R) (Homo sapiens, UniProt O43614); assay: Orexin type 2 receptor agonist activity (FLIPR TETRA intracellular Ca2+ fluorescence); type: cell-based; details: for EC50: CHO cells expressing hOX2R, area of Ca2+ fluorescence over 2 min, read-out: hOx2 pEC50 (converted); for Emax at 10 µM: value at 10 μM, dilution buffer = 0%, 10 nM human orexin A = 100%, read-out: hOx2 Emax
T1 construct: expressed in transfected cells
T1 sequence (O43614 1-444): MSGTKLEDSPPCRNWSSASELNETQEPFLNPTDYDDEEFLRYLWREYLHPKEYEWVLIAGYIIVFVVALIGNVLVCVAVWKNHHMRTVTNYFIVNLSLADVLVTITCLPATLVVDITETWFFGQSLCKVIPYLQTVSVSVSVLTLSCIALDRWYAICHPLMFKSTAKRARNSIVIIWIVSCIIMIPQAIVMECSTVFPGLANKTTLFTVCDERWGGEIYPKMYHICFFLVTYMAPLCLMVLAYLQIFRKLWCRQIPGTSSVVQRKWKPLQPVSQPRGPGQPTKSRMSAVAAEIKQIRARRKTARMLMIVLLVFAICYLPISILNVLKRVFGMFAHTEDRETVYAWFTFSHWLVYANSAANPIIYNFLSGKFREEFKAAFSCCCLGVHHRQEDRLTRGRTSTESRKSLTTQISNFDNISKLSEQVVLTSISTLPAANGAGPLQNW
Protocol: Stable cell line generation. Obtainment of cells stably expressing either human orexin type 2 or human orexin type 1 receptor: to obtain a stable cell line the Orexin receptor cDNA was inserted into pcDNA3.1(+) plasmid vector and clones identified by G418 drug resistance selection. […] A single clone for OX2R-CHO and OX1R-CHO were grown in bulk and frozen to generate a cell bank for routine screening.
Measurement of orexin type 2 receptor agonist activity. Chinese hamster ovary (CHO) cells expressing human orexin type 2 receptor (hOX2R) or human orexin […] were seeded in each well of 384 well black clear bottom plates (BD Flacon) at 10,000 cells per well and cultured for 24 hr in an Ham's F12 (Gibco) medium containing 10% fetal calf serum (Sigma Aldrich) under the conditions of 37° C., 5% CO2. After removal of the medium, 50 μl of assay buffer 1 (0.1% bovine serum albumin (Sigma Aldrich), 20 mM HEPES (Molecular Dimensions), […] (Sigma Aldrich), 1× Calcium 5 dye (Molecular Devices) in Hank's balanced salt solution (Invitrogen)) was added, and the cells were incubated for 60 min under the conditions of 37° C., 5% CO2. A test compound was dissolved in dimethyl sulfoxide (Sigma Aldrich) to 10 mM, and then diluted with assay buffer 2 (20 mM HEPES, Hank's balanced salt solution, 0.1% bovine serum albumin). For the reaction, a test compound solution (10 μl) was added using Fluorescent Imaging Plate Reader TETRA (FLIPR TETRA: manufactured by Molecular Devices), a fluorescence value (excitation wavelength 488 nm, measurement wavelength 570 nm) of each well was measured every one second for 2 min, and the agonist activity was determined using the area of the fluorescence value as an indicator of intracellular Ca^2+ concentration. The agonist activity of the test compound was calculated assuming that the fluorescence value of the well added with only the dilution buffer was 0% and the fluorescence value of the well added with 10 nM human orexin A (Tocris) buffer was 100%. As used herein, Emax indicates the value at 10 μM concentration when orexin A is converted to a full agonist (maximum value of agonist activity: 100%).

[2] = tested on: mice; details: cited from earlier work
[3] = ICV, 3 nmol, orexin-neuron ablated mice

Compound	EC50 [1]	Emax at 10 µM [1]	also measured
CCS(=O)(=O)NC1CCN(C(=O)C(C)C)C1Cc1cccc(C#CC2(C)COC2)c1 (racemic) [Compound 1-9, N-(1-isobutyryl-2-(3-((3-methyloxetan-3-yl)ethynyl)benzyl)pyrrolidin-3-yl)ethane-sulfonamide]	> 0.1 µM	≥ 90%	
CCS(=O)(=O)NC1CCN(C(=O)C(C)C)C1Cc1cccc(C#CCOC)c1F (racemic) [Compound 1-11, N-(2-(2-fluoro-3-(3-methoxyprop-1-yn-1-yl)benzyl)-1-isobutyrylpyrrolidin-3-yl)ethanesulfonamide]	> 0.1 µM	70 to 80%	
CCS(=O)(=O)NC1CCN(C(=O)N2CCC2)C1Cc1cccc(C#CC2CC2)n1 (racemic) [Compound 1-17, N-(1-(azetidine-1-carbonyl)-2-((6-(cyclopropylethynyl)pyridin-2-yl)methyl)pyrrolidin-3-yl)ethanesulfonamide]	> 0.1 µM	80 to 90%	
CCS(=O)(=O)NC1CCN(C(=O)C(C)(C)O)C1Cc1cccc(C#CC2CC2)c1 (racemic) [Compound 1-21, N-(2-(3-(cyclopropylethynyl)benzyl)-1-(2-hydroxy-2-methylpropanoyl)pyrrolidin-3-yl)ethanesulfonamide]	> 0.1 µM	80 to 90%	
CCS(=O)(=O)NC1CCN(C(=O)C(C)(C)O)C1Cc1cccc(C#Cc2ccccc2)c1 (racemic) [Compound 1-22, N-(1-(2-hydroxy-2-methylpropanoyl)-2-(3-(phenylethynyl)benzyl)-pyrrolidin-3-yl)ethanesulfonamide]	> 0.1 µM	≥ 90%	
CC1(C#Cc2cccc(C[C@H]3[C@@H](NS(C)(=O)=O)CCCN3C(=O)[C@H]3CCO3)c2F)CC1 (single isomer, unassigned) [Compound 1-5]		≥ 90%	
CCS(=O)(=O)N[C@@H]1CCN(C(=O)N2CCC2)[C@@H]1Cc1cccc(C#CC2CC2)c1F (single isomer, unassigned) [Compound 1-15]	> 0.1 µM	70 to 80%	
CCS(=O)(=O)N[C@H]1CCN(C(=O)N2CCC2)[C@H]1Cc1cccc(C#CC2CC2)c1F (single isomer, unassigned) [Compound 1-16]	0.001 to 0.01 µM	≥ 90%	
CS(=O)(=O)N[C@H]1CCN(C(=O)[C@H]2CCO2)[C@H]1Cc1cccc(C#CC2(C(F)(F)F)CC2)c1F [Compound 1-2, N-((2S,3S)-2-(2-fluoro-3-((1-(trifluoromethyl)cyclopropyl)ethynyl)benzyl)-1-((R)-oxetane-2-carbonyl)pyrrolidin-3-yl)methanesulfonamide]		≥ 90%	
CC1(C#Cc2cccc(C[C@H]3[C@@H](NS(C)(=O)=O)CCN3C(=O)[C@H]3CCO3)c2)CC1 [Compound 1-3, N-((2S,3S)-2-(3-((1-methylcyclopropyl)ethynyl)benzyl)-1-((R)-oxetane-2-carbonyl)pyrrolidin-3-yl)methanesulfonamide]		≥ 90%	
COC(=O)N1CCC[C@H](NS(C)(=O)=O)[C@@H]1CO[C@H]1CC[C@@H](c2ccccc2)CC1 [TAK-925]			wakefulness ([2]; subcutaneous, WT mice): modestly increases wakefulness
orexin A: orexin peptide cleaved from prepro-orexin; 10 nM human orexin A (Tocris) defines 100% agonist activity (QPLPDCCRQKTCSCRLYELLHGAGNHAAGILTL; ends and bridges not checked; cysteine pairing not given here; UniProt O43612 34-66, looked up)			cataplexy-like behavior [2, 3]: decreases cataplexy-like behavior; time spent awake [2, 3]: increase time spent awake

The next lines start with results.

EC50 [1]	Emax at 10 µM [1]	Compound	also measured
> 0.1 µM	70 to 80%	CCS(=O)(=O)NC1CCN(C(=O)C(C)C)C1Cc1cccc(C#CC2COC2)c1 (racemic) [Compound 1-10, N-(1-isobutyryl-2-(3-(oxetan-3-ylethynyl)benzyl)pyrrolidin-3-yl)ethanesulfonamide]	
> 0.1 µM	≥ 90%	CCS(=O)(=O)NC1CCN(C(=O)C(C)C)C1Cc1cccc(C#CC(C)(C)C)c1 (racemic) [Compound 1-12, N-(2-(3-(3,3-dimethylbut-1-yn-1-yl)benzyl)-1-isobutyrylpyrrolidin-3-yl) ethane-sulfonamide]	
> 0.1 µM	≥ 90%	CCS(=O)(=O)NC1CCN(C(=O)C(C)C)C1Cc1cccc(C#CC2CCCC2)c1 (racemic) [Compound 1-13, N-(2-(3-(cyclopentylethynyl)benzyl)-1-isobutyrylpyrrolidin-3-yl)ethanesulfonamide]	
> 0.1 µM	≥ 90%	CCS(=O)(=O)NC1CCN(C(=O)C(C)C)C1Cc1cccc(C#CC2CC2)c1 (racemic) [Compound 1-14, N-(2-(3-(cyclopropylethynyl)benzyl)-1-isobutyrylpyrrolidin-3-yl) ethanesulfonamide]	
	≥ 90%	CCS(=O)(=O)NC1CCN(C(=O)N2CCC2)C1Cc1cccc(C#CC2CC2)c1F (racemic) [Compound 1-18, N-(1-(azetidine-1-carbonyl)-2-(3-(cyclopropylethynyl)-2-fluorobenzyl)pyrrolidin-3-yl)ethanesulfonamide]	
	≥ 90%	CCS(=O)(=O)NC1CCN(C(=O)C2CCC2)C1Cc1cccc(C#CC2CC2)c1F (racemic) [Compound 1-19, N-(1-(cyclobutanecarbonyl)-2-(3-(cyclopropylethynyl)-2-fluorobenzyl)pyrrolidin-3-yl)ethanesulfonamide]	
	≥ 90%	CCS(=O)(=O)NC1CCN(C(=O)C(C)C)C1Cc1cccc(C#CC2CC2)c1F (racemic) [Compound 1-20, N-(2-(3-(cyclopropylethynyl)-2-fluorobenzyl)-1-isobutyrylpyrrolidin-3-yl)ethanesulfonamide]	
> 0.1 µM	60 to 70%	CC1(C#Cc2cccc(C[C@@H]3[C@H](NS(C)(=O)=O)CCCN3C(=O)[C@H]3CCO3)c2F)CC1 (single isomer, unassigned) [Compound 1-4]	
	≥ 90%	CC1(C#Cc2cccc(C[C@H]3[C@@H](NS(C)(=O)=O)CCN3C(=O)[C@H]3CCO3)c2F)CC1 [Compound 1-1, N-((2S,3S)-2-(2-fluoro-3-((1-methylcyclopropyl)ethynyl)benzyl)-1-((R)-oxetane-2-carbonyl)pyrrolidin-3-yl)methanesulfonamide]	
	≥ 90%	CCNC(=O)N1CC[C@H](NS(C)(=O)=O)[C@@H]1Cc1cccc(C#CC2(C)CC2)c1F [Compound 1-6, (2S,3S)—N-ethyl-2-(2-fluoro-3-((1-methylcyclopropyl)ethynyl)benzyl)-3-(methylsulfonamido)pyrrolidine-1-carboxamide]	
	≥ 90%	CS(=O)(=O)N[C@H]1CCN(C(=O)N2CCC2)[C@H]1Cc1cccc(C#CC2CCC2)c1F [Compound 1-7, N-((2S,3S)-1-(azetidine-1-carbonyl)-2-(3-(cyclobutylethynyl)-2-fluorobenzyl)-pyrrolidin-3-yl)methanesulfonamide]	
0.001 to 0.01 µM	≥ 90%	CC1(C#Cc2cccc(C[C@H]3[C@@H](NS(C)(=O)=O)CCN3C(=O)N3CCC3)c2F)CC1 [Compound 1-8, N-((2S,3S)-1-(azetidine-1-carbonyl)-2-(2-fluoro-3-((1-methylcyclopropyl)-ethynyl)benzyl)pyrrolidin-3-yl)methanesulfonamide]	
